Assay results as given in the supplement of paper PMC10733146.

How the values were obtained:
Experiment in all cases: viability relative to DMSO control (fraction); higher = less drug effect (more viable cells)
Settings in all cases: 48 h
[1] = compound: O=C(Nc1nc2cccc(-c3ccc(CN4CCS(=O)(=O)CC4)cc3)n2n1)C1CC1 [Filgotinib]
Outline: (§1)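 In 384-well plates with compounds pre-plated at five concentrations (one well per concentration), primary mononuclear tumour cells were plated at 4 × 10^4 cells per well. The cells came from blood or bone marrow by Ficoll isolation or from processed lymph node, and were used fresh or cryopreserved. Culture ran for 48 h at 37 °C and 5% CO2 in RPMI-1640 containing penicillin/streptomycin, L-glutamine and human serum. Viability was read as CellTiter-Glo luminescence, normalised to the median of 16 inner DMSO wells.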

[2] = compound: C[C@H](NC(=O)CCC(F)(F)F)C(=O)N[C@@H]1C(=O)N(CCO)c2ncccc2-c2ccccc21
Outline: as §1

[3] = compound: C[C@@H]1CCN(C(=O)CC#N)C[C@@H]1N(C)c1ncnc2[nH]ccc12 [Tofacitinib]
Outline: as §1

[4] = compound: O=C(/C=C\n1cnc(-c2cc(C(F)(F)F)cc(C(F)(F)F)c2)n1)NNc1cnccn1 [Selinexor]
Outline: as §1

[5] = compound: CC(=O)c1c(C)c2cnc(Nc3ccc(N4CCNCC4)cn3)nc2n(C2CCCC2)c1=O [Palbociclib]
Outline: as §1

[6] = compound: C[C@H](Nc1ncnc2nc[nH]c12)c1cc2cccc(Cl)c2c(=O)n1-c1ccccc1 [Duvelisib]
Outline: as §1

[7] = compound: COc1cc([C@@H]2c3cc4c(cc3[C@@H](O[C@@H]3O[C@@H]5CO[C@@H](C)O[C@H]5[C@H](O)[C@H]3O)[C@H]3COC(=O)[C@H]23)OCO4)cc(OC)c1O [Etoposide]
Outline: as §1

[8] = compound: Nc1cccc2c1C(=O)N(C1CCC(=O)NC1=O)C2=O [Pomalidomide]
Outline: as §1

[9] = compound: O=C(O)CCCc1ccc(N(CCCl)CCCl)cc1 [Chlorambucil]
Outline: as §1

[10] = compound: CCN(c1cc(-c2ccc(CN3CCOCC3)cc2)cc(C(=O)NCc2c(C)cc(C)[nH]c2=O)c1C)C1CCOCC1 [EPZ-6438]
Outline: as §1

[11] = compound: CCN(CCCOc1ccc2c(Nc3cc(CC(=O)Nc4cccc(F)c4)[nH]n3)ncnc2c1)CCOP(=O)(O)O [Barasertib]
Outline: as §1

[12] = compound: CCc1ccc(/C=C2/SC(=S)NC2=O)cc1
Outline: as §1

[13] = compound: CO[C@@H]1[C@H](N(C)C(=O)c2ccccc2)C[C@H]2O[C@]1(C)n1c3ccccc3c3c4c(c5c6ccccc6n2c5c31)C(=O)NC4 [Midostaurin hydrate]
Outline: as §1

[14] = compound: CC(C)N(CCCNC(=O)Nc1ccc(C(C)(C)C)cc1)C[C@H]1O[C@@H](n2cc(Br)c3c(N)ncnc32)[C@H](O)[C@@H]1O [SGC 0946]
Outline: as §1

[15] = compound: CC1(C)CCC(c2ccc(Cl)cc2)=C(CN2CCN(c3ccc(C(=O)NS(=O)(=O)c4ccc(N[C@H](CCN5CCOCC5)CSc5ccccc5)c(S(=O)(=O)C(F)(F)F)c4)cc3)CC2)C1 [Navitoclax]
Outline: as §1

What does the source list for primary MCL patient cells (S053)?
viability ([1]; 0.024 µM): 0.996; viability ([1]; 0.12 µM): 0.957; viability ([1]; 0.6 µM): 0.968; viability ([1]; 3 µM): 0.993; viability ([1]; 15 µM): 0.72; viability ([2]; 0.016 µM): 0.971; viability ([2]; 0.08 µM): 1.05; viability ([2]; 0.4 µM): 0.999; viability ([2]; 2 µM): 0.973; viability ([2]; 10 µM): 0.863; viability ([3]; 0.024 µM): 0.923; viability ([3]; 0.12 µM): 0.947; viability ([3]; 0.6 µM): 0.973; viability ([3]; 3 µM): 1.17; viability ([3]; 15 µM): 1.32; viability ([4]; 0.008 µM): 0.842; viability ([4]; 0.04 µM): 0.896; viability ([4]; 0.2 µM): 0.83; viability ([4]; 1 µM): 0.628; viability ([4]; 5 µM): 0.42; viability ([5]; 0.024 µM): 0.918; viability ([5]; 0.12 µM): 0.849; viability ([5]; 0.6 µM): 0.81; viability ([5]; 3 µM): 0.539; viability ([5]; 15 µM): 0.208; viability ([6]; 0.0016 µM): 0.929; viability ([6]; 0.008 µM): 0.878; viability ([6]; 0.04 µM): 0.859; viability ([6]; 0.2 µM): 0.843; viability ([6]; 1 µM): 0.724; viability ([7]; 0.032 µM): 0.995; viability ([7]; 0.16 µM): 0.727; viability ([7]; 0.8 µM): 0.587; viability ([7]; 4 µM): 0.536; viability ([7]; 20 µM): 0.357; viability ([8]; 0.0032 µM): 1.14; viability ([8]; 0.016 µM): 1.27; viability ([8]; 0.08 µM): 1.21; viability ([8]; 0.4 µM): 1.17; viability ([8]; 2 µM): 1.15; viability ([9]; 0.032 µM): 0.975; viability ([9]; 0.16 µM): 0.894; viability ([9]; 0.8 µM): 0.799; viability ([9]; 4 µM): 0.54; viability ([9]; 20 µM): 0.249; viability ([10]; 0.024 µM): 0.988; viability ([10]; 0.12 µM): 1.05; viability ([10]; 0.6 µM): 1.07; viability ([10]; 3 µM): 0.983; viability ([10]; 15 µM): 0.826; viability ([11]; 0.0008 µM): 0.871; viability ([11]; 0.004 µM): 0.876; viability ([11]; 0.02 µM): 0.855; viability ([11]; 0.1 µM): 0.904; viability ([11]; 0.5 µM): 0.923; viability ([12]; 0.024 µM): 0.645; viability ([12]; 0.12 µM): 0.832; viability ([12]; 0.6 µM): 0.857; viability ([12]; 3 µM): 0.847; viability ([12]; 15 µM): 0.764; viability ([13]; 0.024 µM): 0.943; viability ([13]; 0.12 µM): 0.965; viability ([13]; 0.6 µM): 0.908; viability ([13]; 3 µM): 0.731; viability ([13]; 15 µM): 0.341; viability ([14]; 0.024 µM): 0.86; viability ([14]; 0.12 µM): 0.847; viability ([14]; 0.6 µM): 0.807; viability ([14]; 3 µM): 0.787; viability ([14]; 15 µM): 0.503; viability ([15]; 0.0032 µM): 0.866; viability ([15]; 0.016 µM): 0.518; viability ([15]; 0.08 µM): 0.298; viability ([15]; 0.4 µM): 0.244; viability ([15]; 2 µM): 0.168

With primary AML patient cells (S089) as the test system, how does the viability ([1]; 0.024 µM) read?
Its viability is 0.778.

What about the viability ([1]; 0.12 µM) of the same test system?
Its viability is 0.938.

And the viability ([1]; 0.6 µM)?
Its viability is 0.846.

And the viability ([1]; 3 µM)?
Its viability is 0.752.

What about the viability ([1]; 15 µM) of the same test system?
The viability was 0.278.

What about the viability ([2]; 0.016 µM) of the same test system?
The viability was 0.788.

What about the viability ([2]; 0.08 µM) of the same test system?
Its viability is 1.14.

What about the viability ([2]; 0.4 µM) of the same test system?
The viability was 1.

And the viability ([2]; 2 µM)?
The viability was 0.996.

And the viability ([2]; 10 µM)?
Its viability is 0.888.

What about the viability ([3]; 0.024 µM) of the same test system?
Its viability is 0.803.

And the viability ([3]; 0.12 µM)?
Its viability is 0.705.

What about the viability ([3]; 0.6 µM) of the same test system?
The viability was 0.629.

And the viability ([3]; 3 µM)?
The viability was 0.655.

What about the viability ([3]; 15 µM) of the same test system?
Its viability is 0.516.

What about the viability ([4]; 0.008 µM) of the same test system?
The viability was 0.73.

What about the viability ([4]; 0.04 µM) of the same test system?
Its viability is 0.784.

And the viability ([4]; 0.2 µM)?
The viability was 0.559.

And the viability ([4]; 1 µM)?
Its viability is 0.389.

And the viability ([4]; 5 µM)?
The viability was 0.216.

And the viability ([5]; 0.024 µM)?
Its viability is 0.794.

What about the viability ([5]; 0.12 µM) of the same test system?
Its viability is 0.871.

What about the viability ([5]; 0.6 µM) of the same test system?
The viability was 0.604.

And the viability ([5]; 3 µM)?
The viability was 0.722.

What about the viability ([5]; 15 µM) of the same test system?
The viability was 0.0784.

And the viability ([6]; 0.0016 µM)?
Its viability is 0.607.

What about the viability ([6]; 0.008 µM) of the same test system?
Its viability is 0.669.

And the viability ([6]; 0.04 µM)?
The viability was 0.615.

What about the viability ([6]; 0.2 µM) of the same test system?
The viability was 0.543.

What about the viability ([6]; 1 µM) of the same test system?
Its viability is 0.537.

What about the viability ([7]; 0.032 µM) of the same test system?
The viability was 1.14.

And the viability ([7]; 0.16 µM)?
Its viability is 0.998.

What about the viability ([7]; 0.8 µM) of the same test system?
Its viability is 0.998.

What about the viability ([7]; 4 µM) of the same test system?
Its viability is 0.951.

What about the viability ([7]; 20 µM) of the same test system?
The viability was 0.668.

What about the viability ([8]; 0.0032 µM) of the same test system?
The viability was 0.815.

What about the viability ([8]; 0.016 µM) of the same test system?
The viability was 0.669.

And the viability ([8]; 0.08 µM)?
Its viability is 0.639.

What about the viability ([8]; 0.4 µM) of the same test system?
The viability was 0.665.

And the viability ([8]; 2 µM)?
Its viability is 0.644.

And the viability ([9]; 0.032 µM)?
The viability was 0.996.

What about the viability ([9]; 0.16 µM) of the same test system?
Its viability is 1.04.

What about the viability ([9]; 0.8 µM) of the same test system?
The viability was 1.

And the viability ([9]; 4 µM)?
The viability was 0.957.

What about the viability ([9]; 20 µM) of the same test system?
Its viability is 0.724.

What about the viability ([10]; 0.024 µM) of the same test system?
Its viability is 0.971.

What about the viability ([10]; 0.12 µM) of the same test system?
Its viability is 1.06.

What about the viability ([10]; 0.6 µM) of the same test system?
Its viability is 1.01.

And the viability ([10]; 3 µM)?
Its viability is 0.964.

What about the viability ([10]; 15 µM) of the same test system?
Its viability is 0.65.

And the viability ([11]; 0.0008 µM)?
Its viability is 1.08.

What about the viability ([11]; 0.004 µM) of the same test system?
Its viability is 1.06.

What about the viability ([11]; 0.02 µM) of the same test system?
The viability was 0.725.

What about the viability ([11]; 0.1 µM) of the same test system?
The viability was 0.701.

And the viability ([11]; 0.5 µM)?
Its viability is 0.735.

And the viability ([12]; 0.024 µM)?
Its viability is 0.605.

What about the viability ([12]; 0.12 µM) of the same test system?
Its viability is 0.87.

What about the viability ([12]; 0.6 µM) of the same test system?
The viability was 0.878.

What about the viability ([12]; 3 µM) of the same test system?
Its viability is 0.648.

And the viability ([12]; 15 µM)?
The viability was 0.905.

And the viability ([13]; 0.024 µM)?
Its viability is 0.564.

What about the viability ([13]; 0.12 µM) of the same test system?
Its viability is 0.689.

What about the viability ([13]; 0.6 µM) of the same test system?
The viability was 0.866.

What about the viability ([13]; 3 µM) of the same test system?
Its viability is 0.665.

What about the viability ([13]; 15 µM) of the same test system?
Its viability is 0.504.

What about the viability ([14]; 0.024 µM) of the same test system?
The viability was 0.722.

What about the viability ([14]; 0.12 µM) of the same test system?
Its viability is 0.985.

What about the viability ([14]; 0.6 µM) of the same test system?
Its viability is 0.781.

What about the viability ([14]; 3 µM) of the same test system?
Its viability is 0.737.

And the viability ([14]; 15 µM)?
The viability was 0.229.

And the viability ([15]; 0.0032 µM)?
Its viability is 1.02.

What about the viability ([15]; 0.016 µM) of the same test system?
Its viability is 0.783.

What about the viability ([15]; 0.08 µM) of the same test system?
Its viability is 0.957.

What about the viability ([15]; 0.4 µM) of the same test system?
The viability was 0.685.

And the viability ([15]; 2 µM)?
Its viability is 0.521.
